Measured values: ChEMBL document CHEMBL5634158, “From garden to lab: C-3 chemical modifications of tomatidine unveil broad-spectrum ATP synthase inhibitors to combat bacterial resistance” (Eur J Med Chem, 2023)

How the values were obtained:
Staphylococcus aureus [1] = experiment: Antibacterial activity against Staphylococcus aureus ATCC 29213 assessed as reduction in microbial growth incubated for 20 hrs under aerobic condition by CLSI based broth microdilution method; assay type: functional
Staphylococcus aureus [2] = experiment: Antibacterial activity against Staphylococcus aureus ATCC 29213 hemB SCV assessed as reduction in microbial growth incubated for 20 hrs under aerobic condition by CLSI based broth microdilution method; assay type: functional
Escherichia coli [3] = experiment: Selectivity ratio of MIC for Escherichia coli MC4100 to MIC for Escherichia coli MC4100 harbouring acrAB mutant; assay type: toxicity, organism-based; conditions: in vivo
[4] = Inhibition of Escherichia coli ATCC 25922 ATP synthase activity preincubated for 30 mins followed by NADH/ADP addition and measured after 60 mins by luciferin/luciferase luminescence assay
Escherichia coli [5] = experiment: Antibacterial activity against Escherichia coli ATCC 25922 assessed as reduction in microbial growth incubated for 20 hrs under aerobic condition by CLSI based broth microdilution method; assay type: functional
Escherichia coli [6] = experiment: Antibacterial activity against Escherichia coli MC4100 harbouring lptD mutant assessed as reduction in bacterial growth by CLSI based broth microdilution method; assay type: functional
Escherichia coli [7] = experiment: Antibacterial activity against Escherichia coli MC4100 harbouring acrAB mutant assessed as reduction in bacterial growth by CLSI based broth microdilution method; assay type: functional
Escherichia coli [8] = experiment: Antibacterial activity against Escherichia coli MC4100 assessed as reduction in bacterial growth by CLSI based broth microdilution method; assay type: functional
Escherichia coli [9] = experiment: Antibacterial activity against Escherichia coli ATCC 25922 assessed as fold decrease in MIC for 20 hrs under aerobic condition by CLSI based broth microdilution method; assay type: functional
Staphylococcus aureus [10] = experiment: Antibacterial activity against Staphylococcus aureus ATCC 29213 assessed as fold decrease in MIC incubated for 20 hrs under aerobic condition by CLSI based broth microdilution method; assay type: functional

SMILES	MIC (Staphylococcus aureus [1]) [µg/mL]	MIC (Staphylococcus aureus [2]) [µg/mL]	Selectivity ratio (Escherichia coli [3])	IC50 [4] [nM]	MIC (Escherichia coli [5]) [µg/mL]	MIC (Escherichia coli [6]) [µg/mL]	MIC (Escherichia coli [7]) [µg/mL]	MIC (Escherichia coli [8]) [µg/mL]	fold change (FC) (Escherichia coli [9])	fold change (FC) (Staphylococcus aureus [10])
C[C@H]1CC[C@]2(NC1)O[C@H]1C[C@H]3[C@@H]4CC[C@H]5CC(NC[C@@H](N)Cc6ccc(O)cc6)CC[C@]5(C)[C@H]4CC[C@]3(C)[C@H]1[C@@H]2C (mixture of isomers)	8	0.25	> 8	1600	64	8	16	> 128	–	–
C[C@H]1CC[C@]2(NC1)O[C@H]1C[C@H]3[C@@H]4CC[C@H]5CC(NC[C@@H]6Cc7ccccc7CN6)CC[C@]5(C)[C@H]4CC[C@]3(C)[C@H]1[C@@H]2C (mixture of isomers)	16	–	–	–	> 128	–	–	–	2	2
